Laboratory results: ChEMBL document CHEMBL3407344, “Computer-guided drug repurposing: identification of trypanocidal activity of clofazimine, benidipine and saquinavir” (Eur J Med Chem, 2015)
Values belong to the molecule of their own block, whether it stands above or below them. Active and inactive are the calls of the source. No cut-off for these calls is given here.

Key:
[1] = biological target: Cruzipain (Trypanosoma cruzi) (UniProt P25779); test: Inhibition of Trypanosoma cruzi cruzaine at 100 uM using mMBz-Pro-Phe-Arg-pNA substrate incubated for 5 mins by UV-vis spectrophotometry
Trypanosoma cruzi [2] = test: Trypanocidal activity against GFP expressing Trypanosoma cruzi Y C57BL/6J mouse acute model of trypanosomal infection assessed as reduction in cardiac amastigote nests counts at 100 mg/kg/day, ip measured at 10,14 and 20 days post infection by HE staining based conventional microscopy; format: functional, organism-based
Trypanosoma cruzi [3] = test: Trypanocidal activity against GFP expressing Trypanosoma cruzi Y C57BL/6J mouse acute model of trypanosomal infection assessed as reduction in parasitemia at 100 mg/kg/day, ip measured at 10,14 and 20 days post infection; format: functional, organism-based
[4] = Toxicity in orally dosed mouse; format: organism-based; details: in vivo, po
Trypanosoma cruzi [5] = test: (§1) Trypanocidal activity against GFP expressing Trypanosoma cruzi Y epimastigotes in rat H9C2 cell monolayers for 24 hrs infected with 30 mins compound pre-treated parasite obtained from infected African green monkey Vero cells assessed as reduction in parasite count at 2.5 uM measured after 96 hrs by confocal microscopy; format: functional, organism-based
Trypanosoma cruzi [6] = test: Trypanocidal activity against GFP expressing Trypanosoma cruzi Y epimastigotes assessed as inhibition of parasite proliferation at 1 uM to 20 uM and measured after 4 days by hemocytometry based cell counting method; format: functional; details: 96 h
Trypanosoma cruzi [7] = test: as §1, with “12” for “24”, “cell invasion” for “parasite count”, “48” for “96”; format: functional
H9c2 [8] = test: Cytotoxicity against rat H9c2 cells assessed as effect on metabolic activity at 2.5 uM by alamar blue assay; format: ADME, cell-based; details: h9c2, 2.5 µM
Trypanosoma cruzi [9] = test: Trypanocidal activity against GFP expressing Trypanosoma cruzi Y C57BL/6J mouse acute model of trypanosomal infection assessed as reduction in parasitemia at 10 mg/kg/day, ip measured at 10,14 and 20 days post infection; format: functional; details: route intraperitoneal
Trypanosoma cruzi [10] = test: Trypanocidal activity against GFP expressing Trypanosoma cruzi Y epimastigotes assessed as effect on parasite morphology at 1 uM to 20 uM measured after 1 to 3 days by hemocytometry based cell counting method; format: functional, organism-based
Trypanosoma cruzi [11] = test: Trypanocidal activity against GFP expressing Trypanosoma cruzi Y epimastigotes assessed as effect on parasite motility at 1 uM to 20 uM measured after 1 to 3 days by hemocytometry based cell counting method; format: functional, organism-based
Trypanosoma cruzi [12] = test: as §1, with “12” for “24”, “48” for “96”; format: functional, organism-based
[13] = biological target: Cruzipain (Trypanosoma cruzi) (UniProt P25779); test: Inhibition of Trypanosoma cruzi cruzaine using mMBz-Pro-Phe-Arg-pNA substrate incubated for 5 mins by UV-vis spectrophotometry
Trypanosoma cruzi [14] = test: Trypanocidal activity against GFP expressing Trypanosoma cruzi Y C57BL/6J mouse acute model of trypanosomal infection assessed as reduction in parasitemia at 20 mg/kg/day, ip measured at 10,14 and 20 days post infection; format: functional; details: route intraperitoneal
Trypanosoma cruzi [15] = test: as §1, with “12” for “24”, “5” for “2.5”, “48” for “96”; format: functional, organism-based
Trypanosoma cruzi [16] = test: Trypanocidal activity against GFP expressing Trypanosoma cruzi Y epimastigotes assessed as inhibition of parasite proliferation at 20 uM measured after few hrs by hemocytometry based cell counting method; format: functional, organism-based
Trypanosoma cruzi [17] = test: as §1, with “5” for “2.5”; format: functional, organism-based
Trypanosoma cruzi [18] = test: as §1, with “12” for “24”, “cell invasion” for “parasite count”, “5” for “2.5”, “48” for “96”; format: functional
H9c2 [19] = test: Cytotoxicity against rat H9c2 cells assessed as effect on metabolic activity at 5 uM by alamar blue assay; format: ADME, cell-based; details: h9c2, 5 µM
Plasma = test: Plasma concentration in leprosy patient at […], po dosed daily; format: ADME, organism-based; set-up: route oral; details: human, in vivo
Trypanosoma cruzi [20] = test: Trypanocidal activity against GFP expressing Trypanosoma cruzi Y C57BL/6J mouse acute model of trypanosomal infection assessed as reduction in cardiac amastigote nests counts at 20 mg/kg/day, ip measured at 10,14 and 20 days post infection by HE staining based conventional microscopy; format: functional, organism-based
Trypanosoma cruzi [21] = test: as §1, with “12” for “24”, “cell invasion” for “parasite count”, “10” for “2.5”, “48” for “96”; format: functional
H9c2 [22] = test: Cytotoxicity against rat H9c2 cells assessed as effect on metabolic activity at 10 uM by alamar blue assay; format: ADME, cell-based; details: h9c2, 10 µM
Trypanosoma cruzi [23] = test: Trypanocidal activity against GFP expressing Trypanosoma cruzi Y epimastigotes assessed as inhibition of parasite proliferation at 1 uM to 20 uM and measured during stationary phase by hemocytometry based cell counting method; format: functional, organism-based
Trypanosoma cruzi [24] = test: as §1, with “10” for “2.5”; format: functional, organism-based
Trypanosoma cruzi [25] = test: as §1, with “12” for “24”, “10” for “2.5”, “48” for “96”; format: functional, organism-based

Sequence of Cruzipain (Trypanosoma cruzi) (P25779 123-467 limits assumed): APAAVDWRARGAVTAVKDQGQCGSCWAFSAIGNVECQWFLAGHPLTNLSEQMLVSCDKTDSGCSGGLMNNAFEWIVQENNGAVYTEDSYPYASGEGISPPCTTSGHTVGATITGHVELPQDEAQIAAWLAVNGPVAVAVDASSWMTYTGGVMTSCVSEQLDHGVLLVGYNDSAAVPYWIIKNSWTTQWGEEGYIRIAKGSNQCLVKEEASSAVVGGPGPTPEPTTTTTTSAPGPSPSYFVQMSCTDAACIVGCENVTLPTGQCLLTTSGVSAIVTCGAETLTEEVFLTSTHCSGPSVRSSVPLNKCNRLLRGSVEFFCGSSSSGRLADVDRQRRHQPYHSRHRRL

- inhibition [1]: inactive
SMILES: COc1ccc(CCN(C)CCCC(C#N)(c2ccc(OC)c(OC)c2)C(C)C)cc1OC (configuration not stated)

SMILES: O=C(Cn1ccnc1[N+](=O)[O-])NCc1ccccc1
- inhibition (Trypanosoma cruzi [2]): Active
- inhibition (Trypanosoma cruzi [3]): Active

SMILES: COC(=O)C1=C(C)NC(C)=C(C(=O)OC2CCCN(Cc3ccccc3)C2)C1c1cccc([N+](=O)[O-])c1 (configuration not stated) [BENIDIPINE]
- LD50 [4]: > 300 mg/kg
- Activity (Trypanosoma cruzi [5]): Active
- LC50 (Trypanosoma cruzi [6]): 19.5 µM
- fold change (FC) (Trypanosoma cruzi [7]): 3
- Activity (H9c2 [8]): Non-toxic
- inhibition in vivo at 10 mg/kg/day (Trypanosoma cruzi [9]): 40%
- Activity (Trypanosoma cruzi [10]): Active
- inhibition [1]: Active
- Activity (Trypanosoma cruzi [11]): Active
- Activity (Trypanosoma cruzi [12]): Active
- inhibition [13]: Dose-dependent effect

SMILES: CC(C)/N=c1\cc2n(-c3ccc(Cl)cc3)c3ccccc3nc-2cc1Nc1ccc(Cl)cc1 [CLOFAZIMINE]
- inhibition in vivo at 20 mg/kg/day (Trypanosoma cruzi [14]): 40%
- LD50 [4]: 5000 mg/kg
- Activity (Trypanosoma cruzi [15]): Active
- LC50 (Trypanosoma cruzi [6]): 10.6 µM
- inhibition (Trypanosoma cruzi [16]): Active
- Activity (Trypanosoma cruzi [17]): Active
- fold change (FC) (Trypanosoma cruzi [18]): 3
- Activity (Trypanosoma cruzi [10]): Active
- inhibition [1]: Active
- Activity (Trypanosoma cruzi [11]): Active
- Activity (H9c2 [19]): Non-toxic
- inhibition [13]: Dose-dependent effect
- concentration (Plasma): 2100 nM
- inhibition (Trypanosoma cruzi [20]): Active

- inhibition [1]: Active
- inhibition [13]: Dose-dependent effect
SMILES: CC(C)(C)NC(=O)[C@@H]1C[C@@H]2CCCC[C@@H]2CN1C[C@@H](O)[C@H](Cc1ccccc1)NC(=O)[C@H](CC(N)=O)NC(=O)c1ccc2ccccc2n1 [SAQUINAVIR]
- fold change (FC) (Trypanosoma cruzi [21]): 3
- Activity (H9c2 [22]): Non-toxic
- inhibition (Trypanosoma cruzi [23]): Active
- Activity (Trypanosoma cruzi [24]): Active
- Activity (Trypanosoma cruzi [25]): Active
- Activity (Trypanosoma cruzi [10]): Active
- Activity (Trypanosoma cruzi [11]): Active
